The source of these data is US11440923B2, “Substituted macrocyclic indole derivatives” (Bayer Aktiengesellschaft, priority 2017, dated 2022).

Common to all, as to assay type: cell-based
For data set [1], the system named is SUDHL10 cells. Kind of data set: Induction of caspase-3/7 activity in SUDHL10 cells (Assay 4). The protocol:
(§1) Induction of Caspase-3/7 Activity Upon Treatment of Cells with Selected Compounds
(§2) The BH3-domain of MCL-1 sequesters pro-apoptotic proteins, thereby inhibiting apoptosis. In contrast, MCL-1 inhibitors are expected to antagonize this effect leading to an increase in apoptosis, which can be determined by measuring the activity of caspase-3/7.
(§3) The activity of caspase-3/7 was determined in DLBCL (Diffuse large B-cell lymphoma) cell lines (SUDHL5 and SUDHL10) upon treatment with different compounds, using the Caspase-Glo® 3/7 reagent from Promega (G8092).
(§4) As a control, medium without cells was also added to the plate. Cells were incubated in a humidified incubator at 37° C. overnight.
(§5) Rim wells were excluded. The cells were incubated for 3 h hours in a humidified incubator at 37° C. After this incubation, 30 μL of Caspase-Glo® 3/7 reagent (Promega G8092) was added to each well using the Multidrop Combi Reagent Dispenser, followed by 1 h incubation at 37° C. Finally, luminescence was read at 0.1 ms, with a gain of 3000 using the PHERAstar FS microplate reader (BMG Labtech).
(§6) For the evaluation of the results, the background measured with “medium-only” was subtracted from all other values. Then, the values were normalized to DMSO-only treated cells (every value was divided by the mean of the DMSO control).

Data set [2] deals with SUDHL5 cells. The experiment in a line: Induction of caspase-3/7 activity in SUDHL5 cells (Assay 4). The protocol:
as §1, §2, §3, §4, §5, §6

For data set [3], the system named is SUDHL5 cells. The experiment in a line: Antiproliferation assay SUDHL5 (Assay 7). The protocol: (§7) Assessment of the Anti-Proliferative Effect of Compounds in Different Cell Lines
(§8) The impact of compounds on the proliferation of different cell lines was assessed using the CellTiter-Glo® Luminescent Cell Viability reagent from Promega (G7573).
(§9) In parallel, cells were plated in a reference (day 0) plate for time zero determination. Cells were incubated in a humidified incubator at 37° C. overnight.
(§10) Rim wells were excluded. The cells were incubated for 72 h hours in a humidified incubator at 37° C. The day 0 plate was measured by adding 30 μL/well of CTG solution (CellTiter-Glo® Luminescent Cell Viability reagent, Promega G7573) to time zero wells in the reference plate followed by a 10 minutes incubation and luminescence reading at 0.1 ms. using the PHERAstar FS microplate reader (BMG Labtech).
(§11) After 72 h incubation, the treated plates were measured in the same way as the day 0 plate mentioned above. The Bella DRC Master Sheet was used to calculate IC50s, with CI=day 0 values and C0=DMSO control values.

Data set [4] relates to SUDHL10 cells. Kind of data set: Induction of cytotoxicity in SUDHL10 cells (Assay 6). To be noted: 5 h, CellTiter-Glo, read-out: Cytotox SUDHL10 IC50 (median). The method, then: (§12) Assay 6 Induction of Cytotoxicity Upon Treatment of Cells with Selected Compounds
(§13) In principle, compounds that induce apoptosis will concomitantly induce cell cytotoxicity. Therefore, cytotoxicity assays were run in parallel in SUDHL5 and SUDHL10 cells.
(§14) As a control, medium without cells was also added to the plate. Cells were incubated in a humidified incubator at 37° C. overnight. […] Rim wells were excluded. The cells were incubated for 5 h hours in a humidified incubator at 37° C. After this incubation, 30 μL of CellTiter-Glo® Luminescent Cell Viability reagent (Promega, G7573) was added to each well using the Multidrop Combi Reagent Dispenser, followed by 15 min incubation on a shaker at room temperature. Finally, luminescence was read at 0.1 ms, with a gain of 3000 using the PHERAstar FS microplate reader (BMG Labtech).

For data set [5], the system named is SUDHL5 cells. Kind of data set: Induction of cytotoxicity in SUDHL5 cells (Assay 6). To be noted: 5 h, CellTiter-Glo, read-out: Cytotox SUDHL5 IC50 (median). The method, then:
as §12, §13, §14
A general note: Cellular ATP, detected with luciferase, serves as a proxy for viable cell number.

Another data set concerns AMO-1 cells. Kind of data set: Antiproliferation assay AMO-1 (Assay 7). The method, then:
as §7, §8, §9, §10, §11

For a further data set, the system named is HMC-1-8 cells. Kind of data set: Antiproliferation assay HMC-1-8 (Assay 7). The protocol:
as §7, §8, §9, §10, §11

Where [6] appears, read: caspase-3/7 induction, 3 h; read-out: Caspase SUDHL10 EC50 (median).
Setting [7] is: caspase-3/7 induction, 3 h; read-out: Caspase SUDHL5 EC50 (median).
[8] abbreviates: 72 h, CellTiter-Glo; read-out: Antiproli SUDHL5 IC50 (median).
The mark [9] stands for this setting: 72 h, CellTiter-Glo; read-out: Antiproli AMO-1 IC50 median.
Where [10] appears, read: 72 h, CellTiter-Glo; read-out: Antiproli HMC-1-8 IC50 median.
Setting [11] is: Homo sapiens, SU-DHL10, 3 h, caspase-3/7 induction, 3 h; read-out: Caspase SUDHL10 EC50 (median).
[12] abbreviates: Homo sapiens, SU-DHL-5, 3 h, caspase-3/7 induction, 3 h; read-out: Caspase SUDHL5 EC50 (median).
Where [13] appears, read: Homo sapiens, SU-DHL-5, 72 h, 72 h, CellTiter-Glo; read-out: Antiproli SUDHL5 IC50 (median).
[14] abbreviates: Homo sapiens, AMO1, 72 h, 72 h, CellTiter-Glo; read-out: Antiproli AMO-1 IC50 median.
The mark [15] stands for this setting: 72 h, CellTiter-Glo, read-out: Antiproli HMC-1-8 IC50 median.

Where a name gives a salt, the structure may show the parent alone. Read-outs that look alike come from different tables or passages of the source. Some results are limits rather than exact numbers.

As to `CCc1c2c(nn1C)C(CCN1CCOCC1)N(C)CCCCn1c(C(=O)O)c(CCCOc3cccc4ccccc34)c3ccc(Cl)c-2c31` (racemic) [Example 100, (rac)-4-chloro-3-ethyl-2,14-dimethyl-(15-rac)-[2-(morpholin-4-yl)ethyl]-7-{3-[(naphthalen-1-yl)oxy]propyl}-10,11,12,13,14,15-hexahydro-2H-pyrazolo[3′,4′:8,9][1,6]diazacycloundecino[10,11,1-hi]indole-8-carboxylic], the EC50 (in general, the concentration giving half of the maximal effect) with SUDHL10 cells [1] (setting [6]) came out at 230 nM; with SUDHL5 cells [2] (setting [7]), 210 nM. Further, the IC50 (as a rule, the concentration that gives 50% inhibition) with SUDHL5 cells [3] (setting [8]) was 260 nM; in the data set on SUDHL10 cells [4], 320 nM; in the data set on SUDHL5 cells [5] it was 340 nM; in the data set on AMO-1 cells (setting [9]), 224 nM; in the data set with HMC-1-8 cells (setting [10]) it was 3560 nM.
With `CCc1c2c(nn1C)C1CCCCN1CCCCn1c(C(=O)O)c(CCCOc3cccc4ccccc34)c3ccc(Cl)c-2c31` (racemic) [Example 103, (rac)-18-chloro-1-ethyl-2-methyl-15-[3-(1-naphthyloxy)propyl]-2,3b,4,5,6,7,9,10,11,12-decahydropyrazolo[3′,4′:8,9]pyrido[1′,2′:6,7][1,6]diazacycloundecino[10,11,1-hi]indole-14-carboxylic Acid], the EC50 in the data set with SUDHL10 cells [1] (setting [11]) is 2200 nM; with SUDHL5 cells [2] (setting [12]) it was 1400 nM. The IC50 in the data set on SUDHL5 cells [3] (setting [13]) came out at 2000 nM; with SUDHL10 cells [4] (Homo sapiens, SU-DHL10, 5 h), 1700 nM; in the data set with SUDHL5 cells [5] (Homo sapiens, SU-DHL-5, 5 h), 1100 nM; with AMO-1 cells (setting [14]) it was 1950 nM; in the data set on HMC-1-8 cells (setting [15]), 19800 nM.
In the case of `CCc1c2c(nn1C)C(CCN(C)C)OCCCCn1c(C(=O)O)c(CCCOc3cccc4cc(F)ccc34)c3ccc(Cl)c-2c31` (single isomer, unassigned) [Example 82, 4-chloro-15-[2-(dimethylamino)ethyl]-3-ethyl-7-{3-[(6-fluoronaphthalen-1-yl)oxy]propyl}-2-methyl-2,10,11,12,13,15-hexahydropyrazolo[4′,3′:9,10][1,6]oxazacycloundecino[8,7,6-hi]indole-8-carboxylic Acid], the concentration for a half-maximal effect (EC50) was 4500 nM in the data set on SUDHL10 cells [1] (setting [6]) and 2700 nM with SUDHL5 cells [2] (setting [7]). Also, the IC50 is 4200 nM in the data set with SUDHL5 cells [3] (setting [8]); 3100 nM in the data set with SUDHL10 cells [4]; 2600 nM in the data set with SUDHL5 cells [5]; 7560 nM in the data set with AMO-1 cells (setting [9]); above 33000 nM in the data set with HMC-1-8 cells (setting [10]).
Turning to `CCc1c2c(nn1C)C(CCN(C)C)OCCCCn1c(C(=O)O)c(CCCOc3cccc4cc(F)ccc34)c3ccc(Cl)c-2c31` (single isomer, unassigned) [Example 83, 4-chloro-15-[2-(dimethylamino)ethyl]-3-ethyl-7-{3-[(6-fluoronaphthalen-1-yl)oxy]propyl}-2-methyl-2,10,11,12,13,15-hexahydropyrazolo[4′,3′:9,10][1,6]oxazacycloundecino[8,7,6-hi]indole-8-carboxylic Acid], the values for the EC50 with SUDHL10 cells [1] (setting [6]) and with SUDHL5 cells [2] (setting [7]) were 340 nM and 230 nM, respectively. Also, the IC50 worked out at 420 nM with SUDHL5 cells [3] (setting [8]); 330 nM in the data set on SUDHL10 cells [4]; 270 nM in the data set on SUDHL5 cells [5]; 650 nM with AMO-1 cells (setting [9]); 8740 nM with HMC-1-8 cells (setting [10]).
On to `CCc1c2c(nn1C)C(CCN1CCN(C)CC1)OCCCCn1c(C(=O)O)c(CCCOc3cccc4cc(F)ccc34)c3ccc(Cl)c-2c31` (single isomer, unassigned; stereoisomer 2) [Example 70, (+)-4-chloro-3-ethyl-7-{3-[(6-fluoronaphthalen-1-yl)oxy]propyl}-2-methyl-15-[2-(4-methylpiperazin-1-yl)ethyl]-2,10,11,12,13,15-hexahydropyrazolo[4′,3′:9,10][1,6]oxazacycloundecino[8,7,6-hi]indole-8-carboxylic Acid—N-ethylethanamine Salt (Stereoisomer 2)], for which the EC50 came to 14000 nM in the data set with SUDHL10 cells [1] (read-out: Caspase SUDHL10 EC50 (median); caspase-3/7 induction, 3 h) and 13000 nM with SUDHL5 cells [2] (read-out: Caspase SUDHL5 EC50 (median); caspase-3/7 induction, 3 h). The IC50 with SUDHL5 cells [3] (read-out: Antiproli SUDHL5 IC50 (median); 72 h, CellTiter-Glo) is 5000 nM; in the data set on SUDHL10 cells [4] it was 20000 nM; in the data set with AMO-1 cells (read-out: Antiproli AMO-1 IC50 median; 72 h, CellTiter-Glo), 12500 nM; in the data set on HMC-1-8 cells (read-out: Antiproli HMC-1-8 IC50 median; 72 h, CellTiter-Glo), 16800 nM.
Take `CCc1c2c(nn1C)C(CCN1CCN(C)CC1)OCCCCn1c(C(=O)O)c(CCCOc3cccc4cc(F)ccc34)c3ccc(Cl)c-2c31` (single isomer, unassigned; stereoisomer 4) [Example 73, (−)-4-chloro-3-ethyl-7-{3-[(6-fluoronaphthalen-1-yl)oxy]propyl}-2-methyl-15-[2-(4-methylpiperazin-1-yl)ethyl]-2,10,11,12,13,15-hexahydropyrazolo[4′,3′:9,10][1,6]oxazacycloundecino[8,7,6-hi]indole-8-carboxylic Acid (Stereoisomer 4)]: the EC50 in the data set on SUDHL10 cells [1] (setting [11]) is 8800 nM; with SUDHL5 cells [2] (setting [12]), 5200 nM. The half-maximal inhibitory concentration (IC50) was 6100 nM in the data set on SUDHL5 cells [3] (setting [13]); 7700 nM with SUDHL5 cells [5] (Homo sapiens, SU-DHL-5, 5 h); 3840 nM in the data set on AMO-1 cells (setting [14]); above 33000 nM in the data set with HMC-1-8 cells (setting [15]).
With `CCc1c2c(nn1C)C(CCN1CCOCC1)OCC(F)(F)CCn1c(C(=O)O)c(CCCOc3cccc4cc(F)ccc34)c3ccc(Cl)c-2c31` (stereo not shown) [Example 86, 4-chloro-3-ethyl-12,12-difluoro-7-{3-[(6-fluoronaphthalen-1-yl)oxy]propyl}-2-methyl-15-[2-(morpholin-4-yl)ethyl]-2,10,11,12,13,15-hexahydropyrazolo[4′,3′:9,10][1,6]oxazacycloundecino[8,7,6-hi]indole-8-carboxylic Acid], the EC50 with SUDHL10 cells [1] (setting [6]) is 140 nM; in the data set on SUDHL5 cells [2] (setting [7]), 100 nM. Besides, the IC50 with SUDHL5 cells [3] (setting [8]) turned out to be 200 nM; with SUDHL5 cells [5] it was 150 nM; in the data set on AMO-1 cells (setting [9]), 193 nM; with HMC-1-8 cells (setting [10]), 1590 nM.
Take `CCc1c2c(nn1C)C(CCN1CCOCC1)N(C)CCCCn1c(C(=O)O)c(CCCOc3cccc4cc(F)ccc34)c3ccc(Cl)c-2c31` (stereo not shown) [Example 98, 4-chloro-3-ethyl-7-{3-[(6-fluoronaphthalen-1-yl)oxy]propyl}-2,14-dimethyl-15-[2-(morpholin-4-yl)ethyl]-10,11,12,13,14,15-hexahydro-2H-pyrazolo[3′,4′:8,9][1,6]diazacycloundecino[10,11,1-hi]indole-8-carboxylic Acid—N-ethylethanamine Salt]: the figures for the EC50 with SUDHL10 cells [1] (setting [6]) and in the data set on SUDHL5 cells [2] (setting [7]) were 1500 nM and 1000 nM, respectively. Further, the IC50 with SUDHL5 cells [3] (setting [8]) was determined as 1200 nM; with SUDHL5 cells [5], 1400 nM; in the data set on AMO-1 cells (setting [9]), 860 nM; in the data set with HMC-1-8 cells (setting [10]), 11500 nM.
